Laboratory results from patent publication US20150342193A1, “Herbicidal Composition” (priority 2012, published 2015).

Legend:
Assay in all cases: greenhouse post-emergence treatment, herbicidal activity
AMBEL = type: in vivo, Ambrosia artemisiifolia
Method: (§1) The culture containers used were plastic pots containing loamy sand with approximately 2-3.0% of organic matter. The seeds of the test plants were sown separately for each species.
(§2) For the post-emergence treatment, the test plants were grown to a plant height of from 3 to 15 cm, depending on the plant habit, and only then treated with the active compounds which had been suspended or emulsified in water. To this end, the test plants were either sown directly, and grown in the same containers, or they were first grown separately as seedlings and transplanted into the test containers a few days prior to treatment.
(§3) Depending on the species, the plants were kept at 10-25° C. and 20-35° C., respectively. The test period extended over 2 to 4 weeks. During this time, the plants were tended and their response to the individual treatments was evaluated.
(§4) Evaluation was carried out using a scale from 0 to 100. 100 means no emergence of the plants, or complete destruction of at least the above-ground parts, and 0 means no damage or normal course of growth. A good herbicidal activity is given at values of at least 70, and very good herbicidal activity is given at values of at least 85.
(§5) In the examples below, using the method of S. R. Colby (1967) “Calculating synergistic and antagonistic responses of herbicide combinations”, Weeds 15, p. 22ff., the value E, which is expected if the activity of the individual active compounds is only additive, was calculated.
(§6) where X=percent activity using active compound A at an application rate a; Y=percent activity using active compound B at an application rate b; E=expected activity (in %) by A+B at application rates a+b.
(§7) where X=percent activity using active compound A at an application rate a; Y=percent activity using active compound B at an application rate b; Z=percent activity using active compound D at an application rate d; E=expected activity (in %) by A+B+D at application rates a+b+d.
(§8) If the value found experimentally is higher than the value E calculated according to Colby, a synergistic effect is present.
(§9) For preparation of the mixtures herbicides A were used in form of an aqueous solution comprising 22.5% by weight of the respective herbicide A. The herbicides B and D were used in form of the respective commercially available formulations as identified below. 1,5-dimethyl-6-thioxo-3-(2,2,7-trifluoro-3-oxo-4-(prop-2-ynyl)-3,4-dihydro-2H-benzo[b][1,4]oxazin-6-yl)-1,3,5-triazinane-2,4-dione (B.14) was used in form of 10% by weight suspension concentrate. If appropriate, the adjuvant DASH® HC was added to the mixtures.

PANDI = type: in vivo, Panicum dichotomiflorun
Method: as §1, §2, §3, §4, §5, §6, §7, §8, §9

ERBVI = type: in vivo, Eriochloa villosa; conditions: Example 4 (title: +1% by weight DASH® HC)
Method: as §1, §2, §3
(§10) Evaluation was carried out using a scale from 0 to 100. […]
(§11) In the examples below, using the method of S. R. Colby (1967) “Calculating synergistic and antagonistic responses of herbicide combinations”, Weeds 15, p. 22ff., the value E, which is expected if the activity of the individual active compounds is only additive, was calculated. […]
(§12) If the value found experimentally is higher than the value E calculated according to Colby, a synergistic effect is present. […]

ECHCG = type: in vivo, Echinochloa crus-galli
Method: as §1, §2, §3, §4, §5, §6, §7, §12

COMBE = type: in vivo, Commelina benghalensis
Method: as §1, §2, §3, §10, §11, §12

ABUTH = type: in vivo, Abutilon theophrasti
Method: as §1, §2, §3, §4, §5, §6, §7, §12

DIGSA = type: in vivo, Digitaria sanguinales
Method: as §1, §2, §3, §4, §5, §6, §7, §8, §9

POLPE = type: in vivo, Polygonum persicaria
Method: as §1, §2, §3, §4, §5, §6, §7, §8, §9

CHEAL = type: in vivo, Chenopodium album
Method: as §1, §2, §3, §4, §5, §6, §7, §12

HELAN = type: in vivo, Helianthus annuus
Method: as §1, §2, §3, §4, §5, §6, §7, §8, §9

BRADC = type: in vivo, Brachiaria decumbens
Method: as §1, §2, §3, §10, §11, §12

ERICA = type: in vivo, Erigeron canadensis
Method: as §1, §2, §3, §4, §5, §6, §7, §8, §9

PHBPU = type: in vivo, Pharbitis purpurea
Method: as §1, §2, §3, §4, §5, §6, §7, §8, §9

CYPES = type: in vivo, Cyperus esculentus; conditions: Example 6 (title: +1% by weight DASH® HC)
Method: as §1, §2, §3, §10, §11, §12

BRAPP = type: in vivo, Urochloa platyphylla; conditions: Example 10, 31.25 g/ha a.i.
Method: as §1, §2, §3, §10, §11, §12

PHACA = type: in vivo, Phalaris canariensis L.; conditions: Example 10, 31.25 g/ha a.i.
Method: as §1, §2, §3, §10, §11, §12

[1] = Example 5 (title: +1% by weight DASH® HC), post-emergence, B.28 31.25 g/ha a.i.
[2] = Example 5 (title: +1% by weight DASH® HC); post-emergence; a1) 31.25 g/ha a.i.

## CCOC(=O)C(Cl)Cc1cc(-n2nc(C)n(C(F)F)c2=O)c(F)cc1Cl (stereo not shown) [B.7, carfentrazone-ethyl]
AMBEL; Example 11, post-emergence, 15 g/ha a.i.
  herbicidal activity against AMBEL found: 75%
AMBEL; Example 12, post-emergence, B.7 68 g/ha a.i.
  herbicidal activity against AMBEL found: 70%

## CC(C)N(C)S(=O)(=O)NC(=O)c1cc(-n2c(=O)cc(C(F)(F)F)n(C)c2=O)c(F)cc1Cl [B.12, saflufenacil]
PANDI; Example 4 (title: +1% by weight DASH® HC), post-emergence, 6.25 g/ha a.i.
  herbicidal activity against PANDI found: 95%
ERBVI; 6.25 g/ha a.i.
  herbicidal activity against ERBVI found: 80%

## Cc1c(C(=O)c2cnn(C)c2O)ccc(S(C)(=O)=O)c1C1=NOCC1 [B.25, topramezone]
ECHCG; Example 9, 12.5 g/ha a.i.
  herbicidal activity against ECHCG found: 40%
COMBE; Example 2, 12.5 g/ha a.i.
  herbicidal activity against COMBE found: 60%
ABUTH; Example 9, 25 g/ha a.i.
  herbicidal activity against ABUTH found: 90%
DIGSA; Example 2, 12.5 g/ha a.i.
  herbicidal activity against DIGSA found: 65%
DIGSA; Example 9, 12.5 g/ha a.i.
  herbicidal activity against DIGSA found: 70%
POLPE; Example 2, 12.5 g/ha a.i.
  herbicidal activity against POLPE found: 75%
CHEAL; Example 9, 12.5 g/ha a.i.
  herbicidal activity against CHEAL found: 25%
HELAN; Example 2, 12.5 g/ha a.i.
  herbicidal activity against HELAN found: 80%

## O=C(O)CNCP(=O)(O)O [B.26, glyphosate]
BRADC; Example 1, 135 g/ha a.i.
  herbicidal activity against BRADC found: 80%
POLPE; Example 1, 135 g/ha a.i.
  herbicidal activity against POLPE found: 60%
AMBEL; Example 12, post-emergence, B.26 15 g/ha a.i.
  herbicidal activity against AMBEL found: 75%

## CP(=O)(O)CCC(N)C(=O)O (stereo not shown) [B.27, glufosinate]
ERICA; Example 8 (title: +1% by weight DASH® HC), 100 g/ha a.i.
  herbicidal activity against ERICA found: 65%

## Cc1ccc2c(c1)[C@H](Nc1nc(N)nc(C(C)F)n1)[C@@H](C)C2 (stereo partly shown) [B.28, indaziflam]
ERICA; Example 7 (title: +1% by weight DASH® HC), 75 g/ha a.i.
  herbicidal activity against ERICA found: 75%
PANDI; [1]
  herbicidal activity against PANDI found: 80%
PANDI; Example 6 (title: +1% by weight DASH® HC), post-emergence, 6.25 g/ha a.i.
  herbicidal activity against PANDI found: 60%
PHBPU; [1]
  herbicidal activity against PHBPU found: 98%
PHBPU; Example 7 (title: +1% by weight DASH® HC), post-emergence, 75 g/ha a.i.
  herbicidal activity against PHBPU found: 65%
CYPES; 6.25 g/ha a.i.
  herbicidal activity against CYPES found: 55%

## COc1c(Cl)ccc(Cl)c1C(=O)O [B.32, dicamba]
ERICA; Example 3, 60 g/ha a.i.
  herbicidal activity against ERICA found: 95%
AMBEL; Example 3, post-emergence, 60 g/ha a.i.
  herbicidal activity against AMBEL found: 85%
HELAN; Example 3, 60 g/ha a.i.
  herbicidal activity against HELAN found: 80%

## CCNc1nc(Cl)nc(NC(C)C)n1 [D.3, atrazine]
ECHCG; Example 9, 150 g/ha a.i.
  herbicidal activity against ECHCG found: 0%
ABUTH; Example 9, 150 g/ha a.i.
  herbicidal activity against ABUTH found: 60%
DIGSA; Example 9, 150 g/ha a.i.
  herbicidal activity against DIGSA found: 0%
CHEAL; Example 9, 150 g/ha a.i.
  herbicidal activity against CHEAL found: 35%

## C/C=C1/CC2=C(C(=O)OC2=O)[C@H](CCC)[C@H](O)C(=O)C[C@@H]1O [a1), cornexistin]
BRADC; Example 1, 125 g/ha a.i.
  herbicidal activity against BRADC found: 50%
ERICA; Example 3, 125 g/ha a.i.
  herbicidal activity against ERICA found: 40%
ERICA; Example 7 (title: +1% by weight DASH® HC), 31.25 g/ha a.i.
  herbicidal activity against ERICA found: 40%
ERICA; Example 8 (title: +1% by weight DASH® HC), 31.25 g/ha a.i.
  herbicidal activity against ERICA found: 20%
ECHCG; Example 9, 31.25 g/ha a.i.
  herbicidal activity against ECHCG found: 30%
COMBE; Example 2, 125 g/ha a.i.
  herbicidal activity against COMBE found: 60%
PANDI; Example 4 (title: +1% by weight DASH® HC), post-emergence, 62.5 g/ha a.i.
  herbicidal activity against PANDI found: 95%
PANDI; [2]
  herbicidal activity against PANDI found: 90%
PANDI; Example 6 (title: +1% by weight DASH® HC), post-emergence, 62.5 g/ha a.i.
  herbicidal activity against PANDI found: 95%
ABUTH; Example 9, 31.25 g/ha a.i.
  herbicidal activity against ABUTH found: 60%
ERBVI; 62.5 g/ha a.i.
  herbicidal activity against ERBVI found: 90%
BRAPP
  herbicidal activity against BRAPP found: 25%
DIGSA; Example 2, 125 g/ha a.i.
  herbicidal activity against DIGSA found: 90%
DIGSA; Example 9, 31.25 g/ha a.i.
  herbicidal activity against DIGSA found: 25%
PHBPU; [2]
  herbicidal activity against PHBPU found: 70%
PHBPU; Example 7 (title: +1% by weight DASH® HC), post-emergence, 31.25 g/ha a.i.
  herbicidal activity against PHBPU found: 70%
POLPE; Example 1, 125 g/ha a.i.
  herbicidal activity against POLPE found: 60%
POLPE; Example 2, 125 g/ha a.i.
  herbicidal activity against POLPE found: 60%
AMBEL; Example 3, post-emergence, 125 g/ha a.i.
  herbicidal activity against AMBEL found: 65%
AMBEL; Example 11, post-emergence, 62.5 g/ha a.i.
  herbicidal activity against AMBEL found: 90%
AMBEL; Example 12; post-emergence; a1) 15 g/ha a.i.
  herbicidal activity against AMBEL found: 35%
PHACA
  herbicidal activity against PHACA found: 25%
CHEAL; Example 9, 31.25 g/ha a.i.
  herbicidal activity against CHEAL found: 0%
HELAN; Example 2, 125 g/ha a.i.
  herbicidal activity against HELAN found: 20%
HELAN; Example 3, 125 g/ha a.i.
  herbicidal activity against HELAN found: 20%
CYPES; 62.5 g/ha a.i.
  herbicidal activity against CYPES found: 0%
